Source: US20260217677A1, “ORGANIC COMPOUNDS AS NLRP3 INHIBITORS” (KODIAK SCIENCES, INC., priority 2023, published 2026)
Like-named read-outs stand apart in the source and are kept apart here.

Tested on: IL-1β release in U937 cells after NLRP3 activation
Assay: IL-1β release inhibition in U937 cells (MSD V-Plex)
Conditions: PMA-differentiated U937 cells, 1 μg/mL LPS 3 h, compound 30 min, 10 mM nigericin 1 h
[1] = Homo sapiens, U-937, read-out: IL-1β IC50, Table 3
[2] = Homo sapiens, U-937, read-out: IL-1β IC50, Table 4

Row | SMILES | IC50 [1] [nM] | other results
1 | Oc1cc(C(F)(F)F)ccc1-c1nnc(N[C@@H]2CCCN(CCN3CCC(O)CC3)C2)c2c1CCC2 [Compound 19, 1-{2-[(3R)-3-({4-[2-Hydroxy-4-(trifluoromethyl)phenyl]-5H,6H,7H-cyclopenta[d]pyridazin-1-yl}amino)piperidin-1-yl]ethyl}piperidin-4-ol] | 50 to 500 | –
2 | Cc1c(N[C@@H]2CCCN(C[C@H]3C[C@@H](O)C3)C2)nnc(-c2ccc3sccc3c2O)c1C [Example 73, 5-(6-(((R)-1-(((1s,3S)-3-Hydroxycyclobutyl)methyl)piperidin-3-yl)amino)-4,5-dimethylpyridazin-3-yl)benzo[b]thiophen-4-ol] | < 5 | –
3 | Cc1cc(N[C@@H]2CCCN(C3CCN(C4CC(O)C4)CC3)C2)nnc1-c1ccc(C(F)(F)F)cc1O (single isomer, unassigned) [Example 38A] | 5 to 50 | –
4 | O=C(CN1CCC[C@@H](Nc2nnc(-c3ccc(C(F)(F)F)cc3O)c3c2COC3)C1)N1C[C@@H](O)[C@H](F)C1 [Example 29, 1-((3R,4R)-3-Fluoro-4-hydroxypyrrolidin-1-yl)-2-((R)-3-((4-(2-hydroxy-4-(trifluoromethyl)phenyl)-5,7-dihydrofuro[3,4-d]pyridazin-1-yl)amino)piperidin-1-yl)ethan-1-one] | 5 to 50 | –
5 | O=C(CN1CCC[C@@H](Nc2nnc(-c3ccc(C(F)(F)F)cc3O)c3c2COC3)C1)N1CC[C@@H](O)C1 [Example 27, 2-((R)-3-((4-(2-hydroxy-4-(trifluoromethyl)phenyl)-5,7-dihydrofuro[3,4-d]pyridazin-1-yl)amino)piperidin-1-yl)-1-((R)-3-hydroxypyrrolidin-1-yl) ethan-1-one] | 5 to 50 | –
6 | Cc1cc(N[C@@H]2CCCN(CCOC(=O)N3CCC(O)CC3)C2)nnc1-c1ccc2sccc2c1O [Example 69, (R)-2-(3-((6-(4-Hydroxybenzo[b]thiophen-5-yl)-5-methylpyridazin-3-yl)amino)piperidin-1-yl)ethyl 4-hydroxypiperidine-1-carboxylate] | < 5 | –
7 | Cc1cc(N[C@@H]2CCCN(CC(=O)N3CCC4(CC3)CC(N)C4)C2)nnc1-c1ccc(C(F)(F)F)cc1O [Example 82] | – | IC50 [2]: 5 to 50 nM
8 | Cc1cc(N[C@@H]2CCCN(C3CCN(CCN)CC3)C2)nnc1-c1ccc(C(F)(F)F)cc1O [Example 98, (R)-2-(6-((1′-(2-Aminoethyl)-[1,4′-bipiperidin]-3-yl)amino)-4-methylpyridazin-3-yl)-5-(trifluoromethyl)phenol] | – | IC50 [2]: 50 to 500 nM
9 | Cc1cc(N[C@@H]2CCCN(C3CCN(C4CCC(O)CC4)CC3)C2)nnc1-c1ccc(C(F)(F)F)cc1O (single isomer, unassigned) [Example 39B] | – | IC50 (read-out: IL-1β IC50, Table 3): 5 to 50 nM
10 | Cc1cc(N[C@@H]2CCCN([C@H]3C[C@H](N)C3)C2)nnc1-c1ccc(C(F)(F)F)cc1O (relative stereo) [Example 90, 2-(6-(((R)-1-((1r*,3R*)-3-Aminocyclobutyl)piperidin-3-yl)amino)-4-methylpyridazin-3-yl)-5-(trifluoromethyl)phenol] | – | IC50 [2]: 5 to 50 nM
11 | Cc1cc(N[C@@H]2CCCN(C3CCN(C(=O)N4CCC(O)CC4)CC3)C2)nnc1-c1ccc(C(F)(F)F)cc1O [Example 41, (R)-(3-((6-(2-Hydroxy-4-(trifluoromethyl)phenyl)-5-methylpyridazin-3-yl)amino)-[1,4′-bipiperidin]-1′-yl) (4-hydroxypiperidin-1-yl)methanone] | 5 to 50 | –
12 | Cc1cc(N[C@@H]2CCCN(CC(=O)N3CCC4(CCNCC4)CC3)C2)nnc1-c1ccc(C(F)(F)F)cc1O [Example 93, (R)-2-(3-((6-(2-Hydroxy-4-(trifluoromethyl)phenyl)-5-methylpyridazin-3-yl)amino)piperidin-1-yl)-1-(3,9-diazaspiro[5.5]undecan-3-yl)ethan-1-one] | – | IC50 [2]: 50 to 500 nM
13 | Oc1cc(F)ccc1-c1nnc(N[C@@H]2CCCN(C3CNC3)C2)c2c1CCC2 [Example 81, (R)-2-(4-((1-(Azetidin-3-yl)piperidin-3-yl)amino)-6,7-dihydro-5H-cyclopenta[d]pyridazin-1-yl)-5-fluorophenol] | – | IC50 [2]: 50 to 500 nM

Continued, in another order:

Row | IC50 [1] [nM] | SMILES | other results
14 | < 5 | O=C(CN1CCC[C@@H](Nc2nnc(-c3ccc(C(F)(F)F)cc3O)c3c2COC3)C1)N1CCC(O)CC1 [Compound 23, (R)-2-(3-((4-(2-Hydroxy-4-(trifluoromethyl)phenyl)-5,7-dihydrofuro[3,4-d]pyridazin-1-yl)amino)piperidin-1-yl)-1-(4-hydroxypiperidin-1-yl)ethan-1-one] | –
15 | 5 to 50 | Cc1cc(N[C@@H]2CCCN(CC(=O)N3CCC(O)CC3)C2)nnc1-c1ccc(C(F)(F)F)cc1O [Compound 9, 2-[(3R)-3-({6-[2-Hydroxy-4-(trifluoromethyl)phenyl]-5-methylpyridazin-3-yl}amino)piperidin-1-yl]-1-(4-hydroxypiperidin-1-yl)ethanone] | –
16 | < 5 | Cc1cc(N[C@@H]2CCCN(CCC3CCC(O)CC3)C2)nnc1-c1ccc(C(F)(F)F)cc1O (single isomer, unassigned) [Example 72] | –
17 | 5 to 50 | Cc1cc(N[C@@H]2CCCN(CC(=O)N3CCC(CO)CC3)C2)nnc1-c1ccc(C(F)(F)F)cc1O [Example 58, (R)-2-(3-((6-(2-Hydroxy-4-(trifluoromethyl)phenyl)-5-methylpyridazin-3-yl)amino)piperidin-1-yl)-1-(4-(hydroxymethyl)piperidin-1-yl)ethan-1-one] | –
18 | 5 to 50 | Cc1cc(N[C@@H]2CCCN(C(=O)C34CC(O)(C3)C4)C2)nnc1-c1ccc(C(F)(F)F)cc1O [Example 63, (R)-(3-((6-(2-Hydroxy-4-(trifluoromethyl)phenyl)-5-methylpyridazin-3-yl)amino)piperidin-1-yl) (3-hydroxybicyclo[1.1.1]pentan-1-yl)methanone] | –
